Assay results published in patent publication US12281225B2, “Process for preparing stable polymers containing vinylimidazole” (BASF SE, priority 2018, dated 2025).

Legend:
[1] = Iodine color number according to DIN 6162:2014-09; assay type: physicochemical
[2] = Physical stability; visual assessment (color, turbidity, phase separation); assay type: physicochemical; design: key: ++: no discernible change with respect to color, turbidity or phase separation; +: marginal change in color number, somewhat increased Tyndall effect but no turbidity; 0: easily discernible increase in color number and moderate turbidity−no phase separation; −: turbidity and change in color number readily discernible by visual assessment; −−: strong color change with strong turbidity and incipient phase separation
In short: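 Scoring was by eye on a scale from ++ to −−, where ++ means no change and −− means strong color change, strong turbidity and incipient phase separation. Color, turbidity and phase separation were the criteria.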

[3] = Analysis of active substance: preservative concentration before and after storage in VI-containing polymer solution; assay type: physicochemical; conditions: for active-substance concentration, 0 d, RT: before storage; for active-substance concentration, 14 d, 40° C.: storage 14 d at 40° C.; for active-substance concentration, 28 d, 40° C.: storage 28 d at 40° C.; for active-substance concentration, 60 d 40° C.: storage 60 d at 40° C.
In short: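 Preservatives (MIT, BIT, CMIT, OIT, DCOIT, iodopropynyl butyl carbamate) in aqueous vinylpyrrolidone–vinylimidazole copolymer solution quantified after dilution by isocratic RP18 chromatography with UV detection, using an acid-methanol eluent.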

[4] = test system: Bacteria: Escherichia coli, Staphylococcus aureus, Pseudomonas aeruginosa, Pseudomonas putida, Burkholderia cepacia, Alcaligenes faecalis; test: Preservation test with periodic inoculation, bacteria assessment; assay type: cell-based; conditions: for Start sample measurement, bact. assess., 4th inoculation: freshly formulated; for 60 d 40° C., bact. assess., 4th inoculation: sample stored 60 d at 40° C.
Experimental: Microbiological results at the start (freshly formulated, i.e. 4-week test series is started immediately) and after 60 days of storage at 40° C. (i.e. the 4-week microbial testing is started with the sample stored at 40° C. for 60 days)
The test described below is carried out in order to ascertain the preserving effect of chemical preservatives in aqueous products and systems, the principle of the described method reflecting the efficacy of chemical preservatives with respect to pot-maintenance of aqueous products/systems under conditions corresponding to the use of laundry products/consumer products by the consumer. For this purpose, the preservatives to be tested are added in those concentrations which correspond to from the literature or to the manufacturer data from the suppliers (e.g. Thor, Speyer). In said test, our orientation was toward the upper range, which, with the exception of VI-containing polymers, had always led to excellent results in the case of aqueous polymers for laundry.
A constant microorganism load is achieved by periodic inoculation of the test batches. Before the swabs of each batch made respectively immediately in parallel with the inoculation. The assessment is made on the basis of the microbial growth of the streaks.
When carrying out said tests, 25 g of the polymer to be tested are weighed in each case into a vessel with a screw cap. The preservatives to be tested are each added in separate batches according to the specified use concentrations. An unpreserved product sample was used in each case for the growth control. Two days after the addition of the preservative, the samples are infected with 0.5 ml of inoculum (2% w/w). The titer of this inoculant solution is 10^9 organisms per ml. The following microorganisms are the test organisms for the preservation test:
• Escherichia coli • Staphylococcus aureus • Pseudomonas aeruginosa • Pseudomonas putida • Burkholderia cepacia • Alcaligenes faecalis Yeast: • Candida albicans • Candida valida • Rhodotorula rura • Saccharomyces cerevisiae
The test batches are inoculated four times altogether and once a week and are streaked on an agar plate once a week; the first streaking is done immediately before the new inoculation. Microbial growth on the agar surface is assessed after a three-day incubation at 25° C. As a precaution, negative swabs are additionally observed for a further three days and reassessed. The preserving effect is effected in a semiquantitative method via the growth of the individual streaks in accordance with the assessment from − via + to +++. The preservative result is repeatedly demonstrably robust, i.e. +++− defines the microbial growth.
When assessing the results, it is assumed that a preservative can be regarded as good if there are batches under the above-described laboratory conditions for a period of four weeks without microbial invasion of the sample, and that, even after the fourth inoculation, no microbial attacks occur growth can be identified. • −−: no growth • −: slight growth, max. 100 colonies • 0: moderate growth, max. 400 colonies • +: uniform growth with individual colonies still easily identifiable • ++: strong growth; too many colonies to be counted, already some extensive growth

[5] = Polymer P5 (HP56) with stabilizer

O=c1[nH]sc2ccccc12 [BIT, 1,2-benzisothiazolin-3-one]
Iodine color number, 60 d 40° C. ([1]; Polymer P1 with stabilizer): 6.0 | Iodine color number, start ([1]; Polymer P1 with stabilizer): 2.6 | Iodine color number, 60 d 40° C. ([1]; Polymer P2 with stabilizer): 7.1 | Iodine color number, start ([1]; Polymer P2 with stabilizer): 2.9 | Iodine color number, 60 d 40° C. ([1]; Polymer P3 with stabilizer): 9.3 | Iodine color number, start ([1]; Polymer P3 with stabilizer): 3.4 | Iodine color number, 60 d 40° C. ([1]; Polymer P4 with stabilizer): 9.2 | Iodine color number, start ([1]; Polymer P4 with stabilizer): 3.4 | Iodine color number, 60 d 40° C. [1, 5]: 10.4 | Iodine color number, start [1, 5]: 3.6 | Iodine color number, 60 d 40° C. ([1]; Polymer P6 with stabilizer): 10.0 | Iodine color number, start ([1]; Polymer P6 with stabilizer): 3.6 | Iodine color number, 60 d 40° C. ([1]; Polymer P7 with stabilizer): 10.0 | Iodine color number, start ([1]; Polymer P7 with stabilizer): 3.6 | Iodine color number, 60 d 40° C. ([1]; Polymer P8 with stabilizer): 10.4 | Iodine color number, start ([1]; Polymer P8 with stabilizer): 3.4 | Iodine color number, 60 d 40° C. ([1]; Polymer P9 with stabilizer): 12.8 | Iodine color number, start ([1]; Polymer P9 with stabilizer): 4.0 | Physical stability, 60 d 40° C.* ([2]; Polymer P1 with stabilizer): − | Physical stability, 60 d 40° C.* ([2]; Polymer P2 with stabilizer): − | Physical stability, 60 d 40° C.* ([2]; Polymer P3 with stabilizer): − | Physical stability, 60 d 40° C.* ([2]; Polymer P4 with stabilizer): − | Physical stability, 60 d 40° C.* [2, 5]: − | Physical stability, 60 d 40° C.* ([2]; Polymer P6 with stabilizer): − | Physical stability, 60 d 40° C.* ([2]; Polymer P7 with stabilizer): − | Physical stability, 60 d 40° C.* ([2]; Polymer P8 with stabilizer): −− | Physical stability, 60 d 40° C.* ([2]; Polymer P9 with stabilizer): − | active-substance concentration, 0 d, RT ([3]; in Polymer P1): 150 ppm | active-substance concentration, 14 d, 40° C. ([3]; in Polymer P1): 101 ppm | active-substance concentration, 28 d, 40° C. ([3]; in Polymer P1): 85 ppm | active-substance concentration, 60 d 40° C. ([3]; in Polymer P1): 69 ppm | active-substance concentration, 0 d, RT ([3]; in Polymer P2): 150 ppm | active-substance concentration, 14 d, 40° C. ([3]; in Polymer P2): 112 ppm | active-substance concentration, 28 d, 40° C. ([3]; in Polymer P2): 93 ppm | active-substance concentration, 60 d 40° C. ([3]; in Polymer P2): 80 ppm | active-substance concentration, 0 d, RT ([3]; in Polymer P3): 150 ppm | active-substance concentration, 14 d, 40° C. ([3]; in Polymer P3): 119 ppm | active-substance concentration, 28 d, 40° C. ([3]; in Polymer P3): 99 ppm | active-substance concentration, 60 d 40° C. ([3]; in Polymer P3): 80 ppm | active-substance concentration, 0 d, RT ([3]; in Polymer P4): 150 ppm | active-substance concentration, 14 d, 40° C. ([3]; in Polymer P4): 117 ppm | active-substance concentration, 28 d, 40° C. ([3]; in Polymer P4): 93 ppm | active-substance concentration, 60 d 40° C. ([3]; in Polymer P4): 82 ppm | active-substance concentration, 0 d, RT ([3]; in Polymer P5 (HP56)): 150 ppm | active-substance concentration, 14 d, 40° C. ([3]; in Polymer P5 (HP56)): 101 ppm | active-substance concentration, 28 d, 40° C. ([3]; in Polymer P5 (HP56)): 85 ppm | active-substance concentration, 60 d 40° C. ([3]; in Polymer P5 (HP56)): 69 ppm | active-substance concentration, 0 d, RT ([3]; in Polymer P6): 150 ppm | active-substance concentration, 14 d, 40° C. ([3]; in Polymer P6): 99 ppm | active-substance concentration, 28 d, 40° C. ([3]; in Polymer P6): 83 ppm | active-substance concentration, 60 d 40° C. ([3]; in Polymer P6): 66 ppm | active-substance concentration, 0 d, RT ([3]; in Polymer P7): 150 ppm | active-substance concentration, 14 d, 40° C. ([3]; in Polymer P7): 105 ppm | active-substance concentration, 28 d, 40° C. ([3]; in Polymer P7): 88 ppm | active-substance concentration, 60 d 40° C. ([3]; in Polymer P7): 72 ppm | active-substance concentration, 0 d, RT ([3]; in Polymer P8): 150 ppm | active-substance concentration, 14 d, 40° C. ([3]; in Polymer P8): 101 ppm | active-substance concentration, 28 d, 40° C. ([3]; in Polymer P8): 85 ppm | active-substance concentration, 60 d 40° C. ([3]; in Polymer P8): 69 ppm | active-substance concentration, 0 d, RT ([3]; in Polymer P9): 150 ppm | active-substance concentration, 14 d, 40° C. ([3]; in Polymer P9): 97 ppm | active-substance concentration, 28 d, 40° C. ([3]; in Polymer P9): 78 ppm | active-substance concentration, 60 d 40° C. ([3]; in Polymer P9): 60 ppm | Start sample measurement, bact. assess., 4th inoculation ([4]; Polymer P1): − (slight growth, max. 100 colonies) | 60 d 40° C., bact. assess., 4th inoculation ([4]; Polymer P1): + | Start sample measurement, bact. assess., 4th inoculation ([4]; Polymer P2): − (slight growth, max. 100 colonies) | 60 d 40° C., bact. assess., 4th inoculation ([4]; Polymer P2): ++ | Start sample measurement, bact. assess., 4th inoculation ([4]; Polymer P3): − (slight growth, max. 100 colonies) | 60 d 40° C., bact. assess., 4th inoculation ([4]; Polymer P3): ++ | 60 d 40° C., bact. assess., 4th inoculation ([4]; Polymer P4): + | 60 d 40° C., bact. assess., 4th inoculation ([4]; Polymer P5 (HP56)): ++ | 60 d 40° C., bact. assess., 4th inoculation ([4]; Polymer P6): + | 60 d 40° C., bact. assess., 4th inoculation ([4]; Polymer P7): ++ | Start sample measurement, bact. assess., 4th inoculation ([4]; Polymer P8): − (slight growth, max. 100 colonies) | 60 d 40° C., bact. assess., 4th inoculation ([4]; Polymer P8): + | 60 d 40° C., bact. assess., 4th inoculation ([4]; Polymer P9): ++
